Source: US20260265302A1, “PEPTIDE WITH ACTIVITY OF PROMOTING HAIR GROWTH OR INHIBITING HAIR LOSS AND USE THEREOF” (CAREGEN CO., LTD., priority 2023, published 2026)
Entries after “also recorded” stand apart in the source; their conditions may differ.

Legend:
DKK-1 = assay: DHT-induced DKK-1 expression western blot in hair follicle dermal papilla cells; format: cell-based, human; settings: HHFDPC; for inhibiting effect on DKK-1 expression (in words): DHT-induced, peptides at different concentrations (FIG. 4, FIG. 7)
Protocol: To confirm whether a peptide consisting of the amino acid sequence of SEQ ID NO: 1 inhibits the expression of DKK-1, a hair loss-related factor, in hair follicle cells. Human hair follicle dermal papilla cells were seeded in 6-well plates at a density of 4×10^5 cells/well and cultured for 24 hours. After replacing with serum-free mesenchymal stem cell medium, the cells were cultured for 24 hours. The peptides were treated at concentrations of 10 μM, 50 μM, or 100 μM, respectively, and simultaneously treated with DHT, an inducer of hair loss protein DKK-1, at a concentration of 100 nM. As a positive control group, 5 μM of finasteride, a drug that inhibits androgens, was treated. DHT is known as a hair loss hormone that increases the expression of DKK-1 (Dickkopf-related protein 1), a hair loss-inducing factor, by activating androgen receptors. After culturing at 37° C. for 24 hours, the cells were washed with PBS, treated with lysis buffer to prepare cell lysates, and equal amounts of protein samples were prepared by BCA quantification. Electrophoresis was performed using a 10% SDS-PAGE gel. Proteins separated by SDS PAGE were transferred to a PVDF membrane. Blocking was performed at room temperature for 30 minutes using 5% skim milk. DKK-1 (cell signaling, USA) antibody was diluted 1:1000 in 3% BSA and reacted with the membrane at 4° C. for 16 hours. The membrane was then washed three times with 0.1% PBS-T (0.1% Tween-20 in PBS) for 15 minutes each. The secondary antibody was diluted 1:2000 in 5% skim milk and reacted at room temperature for 1 hour. The membrane was then washed three times with 0.1% PBS-T (0.1% Tween-20 in PBS) for 15 minutes each. After treatment with ECL solution (GE Healthcare, USA), protein band detection and densitometry were performed using ImageQuant 800 (Amersham, USA).
The effect of inhibiting the expression of hair loss-related factors was compared between the novel peptide consisting of the amino acid sequence of SEQ ID NO: 1 and the peptide consisting of the amino acid sequence of SEQ ID NO: 10. The experiment was conducted in the same manner as described in Example 5, and it was confirmed whether the expression of DKK-1, a hair loss-related factor, was inhibited after treating HHFDPC with peptides at different concentrations.

[1] = test system: human hair follicle dermal papilla cells; assay: Hair follicle cell proliferation (SRB staining, absorbance 560 nm); format: cell-based; settings: HHFDPC; for proliferation effect on hair follicle cells (in words): peptides at different concentrations (FIG. 1, FIG. 5)
Protocol: To confirm the effect of a peptide consisting of the amino acid sequence of SEQ ID NO: 1 on promoting the proliferation of hair follicle cells. Specifically, human hair follicle dermal papilla cells were seeded in a 96-well plate at a density of 4×10^3 cells/well and cultured for 24 hours. After replacing with serum-free mesenchymal stem cell medium, the cells were cultured for 24 hours. The above peptide was treated at concentrations of 10 μM, 50 μM, or 100 μM, respectively, and incubated at 37° C. for 72 hours. As a positive control group, 1 μM of Minoxidil, a hair loss treatment drug, was treated. After completion of culturing, the culture supernatant was removed and the cells were fixed using ethanol. After washing with PBS, staining was performed by treating with SRB solution. After washing with 1% acetic acid, cells were observed under a microscope and destained by treating with 20 mM tris solution. Cell viability was measured by measuring absorbance at a wavelength of 560 nm using a spectrophotometer (SpectraMax iD3, Molecular Devices (USA, CA)).
The proliferation effects of a novel peptide consisting of the amino acid sequence of SEQ ID NO: 1 and a peptide consisting of the amino acid sequence of SEQ ID NO: 10 disclosed in KR10-1285259 (Table 3) on hair follicle cell proliferation were compared. The experiment was conducted in the same manner as described in Example 2, and the cell proliferation effect was measured after treating HHFDPC with peptides at different concentrations.

β-catenin = assay: Nuclear β-catenin western blot (promotion of proliferation mechanism of hair follicle cells); format: cell-based, human; settings: HHFDPC; for translocation of β-catenin from the cytoplasm to the nucleus (in words): peptides at various concentrations (FIG. 6)
Protocol: To confirm the effect of a peptide consisting of the amino acid sequence of SEQ ID NO: 1 on promoting the proliferation mechanism of hair follicle cells. Specifically, human hair follicle dermal papilla cells were seeded in a 6-well plate at a density of 4×10^5 cells/well and cultured for 24 hours. After replacing with serum-free mesenchymal stem cell medium, the cells were cultured for 24 hours. A peptide was treated at concentrations of 10 μM, 50 μM, or 100 μM, respectively, and incubated at 37° C. for 24 hours. As a positive control group, 10 ng/ml of recombinant human Wnt-3a protein was treated. After washing with PBS, nucleoproteins were isolated using a nucleoprotein extraction kit (Thermo scientific, USA) and quantified with BCA to prepare equal amounts of protein samples. The proteins separated by electrophoresis using a 10% SDS-PAGE gel were transferred to a PVDF membrane. Blocking was performed at room temperature for 30 minutes using 5% skim milk. β-catenin (cell signaling, USA) and HDAC1 (santa cruz, USA) antibodies were diluted 1:1000 in 3% BSA and reacted with the membrane at 4° C. for 16 hours. The membrane was washed three times with 0.1% PBS-T (0.1% Tween-20 in PBS) for 15 minutes each. The secondary antibody was diluted 1:2000 in 5% skim milk and reacted at room temperature for 1 hour. The membrane was then washed three times with 0.1% PBS-T (0.1% Tween-20 in PBS) for 15 minutes each. After treatment with ECL solution (GE Healthcare, USA), the membrane was detected.
The proliferation-promoting effects of a novel peptide consisting of the amino acid sequence of SEQ ID NO: 1 and a peptide consisting of the amino acid sequence of SEQ ID NO: 10 on hair follicle cells were compared. The experiment was conducted in the same manner as described in Example 3, in which HHFDPC was treated with peptides at various concentrations and the translocation of β-catenin from the cytoplasm to the nucleus was measured.

Cyclin D1 = assay: RT-PCR expression of Cyclin D1 in hair follicle dermal papilla cells; format: cell-based, human; settings: HHFDPC, peptide 10, 50 or 100 μM, 24 hours, maximum effect (FIG. 3)
Protocol: (§1) To confirm the effect of a peptide consisting of the amino acid sequence of SEQ ID NO: 1 on promoting hair follicle cell activity. Human hair follicle dermal papilla cells were seeded in 6-well plates at a density of 4×10^5 cells/well and cultured for 24 hours. After replacing with serum-free mesenchymal stem cell medium, the cells were cultured for 24 hours. A peptide was treated at concentrations of 10 μM, 50 μM, or 100 μM, respectively, and incubated at 37° C. for 24 hours. As a positive control group, 10 ng/mL of recombinant human Wnt-3a protein was treated. After washing with PBS, RNA was isolated by treating with 300 μL of easy blue (intron, Korea). After RNA quantification, cDNA synthesis was performed using a cDNA synthesis kit (enzynomics, Korea). Electrophoresis was performed on a 1.5% agarose gel and band detection was performed using a Bio-Rad gel image system.

Lef-1 = assay: RT-PCR expression of Lef-1 in hair follicle dermal papilla cells; format: cell-based, human; settings: HHFDPC, peptide 10, 50 or 100 μM, 24 hours, maximum effect (FIG. 3)
Protocol: as §1

c-Myc = assay: RT-PCR expression of c-Myc in hair follicle dermal papilla cells; format: cell-based, human; settings: HHFDPC, peptide 10, 50 or 100 μM, 24 hours, maximum effect (FIG. 3)
Protocol: as §1

Sequence | inhibiting effect on DKK-1 expression (in words) (DKK-1) | proliferation effect on hair follicle cells (in words) [1] | translocation of β-catenin from the cytoplasm to the nucleus (in words) (β-catenin) | Cyclin D1 expression increase compared to the control group (Cyclin D1) | DKK-1 expression level reduction compared to the negative control group (DHT treatment group) (DKK-1; high-concentration peptide treatment group, DHT 100 nM, 24 hours, western blot (FIG. 4)) | ability to inhibit the expression of DKK-1 compared with the known peptide (DKK-1; same concentration, SEQ ID NO: 1 vs SEQ ID NO: 10 (FIG. 7)) | proliferation increase of hair follicle cells ([1]; peptide 10, 50 or 100 μM, 72 hours, maximum effect (FIG. 1)) | hair follicle cell proliferation promotion activity compared with the known peptide ([1]; same concentration, SEQ ID NO: 1 vs SEQ ID NO: 10 (FIG. 5)) | nuclear translocation of β-catenin from the cytoplasm to the nucleus, increase (β-catenin; peptide 10, 50 or 100 μM, 24 hours, nucleoprotein western blot, maximum effect (FIG. 2)) | expression of β-catenin (in words) (β-catenin; peptide 10, 50 or 100 μM, 24 hours, western blot (FIG. 2)) | proliferation mechanism promoting activity compared with the known peptide (β-catenin; same concentration, SEQ ID NO: 1 vs SEQ ID NO: 10 (FIG. 6)) | Lef-1 expression increase compared to the control group (Lef-1) | c-Myc expression increase compared to the control group (c-Myc)
AERRRELCRC [SEQ ID NO: 10, reference compound] | exhibit an inhibiting effect on DKK-1 expression in a concentration-dependent manner | exhibit a proliferation effect on hair follicle cells in a concentration-dependent manner | promote the translocation of β-catenin from the cytoplasm to the nucleus in a concentration-dependent manner | – | – | – | – | – | – | – | – | – | –
AERRREKCRC [SEQ ID NO: 1] | exhibit an inhibiting effect on DKK-1 expression in a concentration-dependent manner; also recorded: inhibiting DKK-1 expression induced by DHT | proliferation was induced in a concentration-dependent manner; also recorded: exhibit a proliferation effect on hair follicle cells in a concentration-dependent manner | promote the translocation of β-catenin from the cytoplasm to the nucleus in a concentration-dependent manner | up to 1.96 times | about 50% | significantly higher ability to inhibit the expression of DKK-1 than the known peptide | up to 155% | significantly higher hair follicle cell proliferation promotion activity than the known peptide | up to 1.35 times | expression of β-catenin increases | significantly higher proliferation mechanism promoting activity than the known peptide | up to 3 times | up to 1.62 times
